Data published in patent US5109011A, “P-acylaminophenoxycarbamates and derivatives” (Hoechst-Roussel Pharmaceuticals Incorporated, priority 1990, dated 1992).

System: phenyl-para-quinone induced writhing
Assay: phenyl-para-quinone writhing assay in mice (analgesia)
Type: in vivo
Details: Mus musculus, oral, read-out: Analgesic Activity ED50 (oral dose at which 50% of the phenyl-para-quinone induced writhing is inhibited)
Text: Exptl. Biol. Med., 95,729 (1957)]. Presented in Table I is the analgesic effect of some of the compounds of the invention expressed as the oral dose at which 50% of the phenyl-para-quinone induced writhing is inhibited in the animals, i.e., the ED50 value.

## CC(=O)Nc1ccc(OC(=O)N(C)O)cc1 [4-(Acetylamino)phenyl-N-hydroxy-N-methyl carbamate]
  ED50: 32.3 mg/kg

## CC(=O)Nc1ccc(OC(=O)N(C)OCc2ccccc2)cc1 [4-(acetylamino)phenyl-N-benzyloxy-N-methyl carbamate]
  ED50: 28.5 mg/kg

## CC(=O)Nc1ccc(O)cc1 [Acetaminophen, reference compound]
  ED50: 33.8 mg/kg

## CC(=O)Nc1ccc(OC(=O)N(C)OC(C)=O)cc1 [4-(Acetylamino)phenyl-N-(acetyloxy)-N-methyl carbamate]
  ED50: 42.7 mg/kg
